Data on seven molecules can be found in ChEMBL document CHEMBL2010638, “Synthesis and evaluation of disulfide bond mimetics of amylin-(1-8) as agents to treat osteoporosis” (Bioorg Med Chem, 2012).

Activity calls are given as the source filed them. The rule behind the calls is not given here. *1 amine or outer side, *2 acyl side, *3 side chain or, on linkers, in order; H or OH if unused. Where a SMILES comes first, the peptide text is derived from it. Bridges are numbered along the chain shown (N, C = ends). Triazole bridges read from a SMILES are 1,4-linked. [ ]: non-standard residue; d: D form. Dap(N3) = [N-]=[N+]=NC[C@H](N)C(=O)O; oXylylene = c1ccc(C[*:2])c(C[*:1])c1; pXylylene = c1cc(C[*:2])ccc1C[*:1]; Pra = C#CC[C@H](N)C(=O)O; CH2CH2 = C(C[*:2])[*:1]; X2 = O=C(CC[*:2])[*:1]; X1 = C(C[*:1])C[*:2]

The assay relates to Calvarial osteoblast. Nature of the assay: Induction of osteoblast differentiation in rat fetal calvarial osteoblast assessed as [3H]thymidine incorporation at 10^-8 to 10^-10 after 6 hrs. The format is functional, cell-based. (In general: Dividing cells build labelled thymidine or BrdU into new DNA.)

For the molecule `C[C@H](NC(=O)[C@@H]1CSSC[C@H](NC(=O)[C@@H](N)CCCCN)C(=O)N[C@@H](CC(N)=O)C(=O)N[C@@H]([C@@H](C)O)C(=O)N[C@@H](C)C(=O)N[C@@H]([C@@H](C)O)C(=O)N1)C(N)=O` (H-KCNTATCA-NH2; disulfide 2-7), the result was Active. For the molecule `C[C@H](NC(=O)[C@@H]1CSCCSC[C@H](NC(=O)[C@@H](N)CCCCN)C(=O)N[C@@H](CC(N)=O)C(=O)N[C@@H]([C@@H](C)O)C(=O)N[C@@H](C)C(=O)N[C@@H]([C@@H](C)O)C(=O)N1)C(N)=O` (H-KCNTATCA-NH2; linker 2-7 via CH2CH2), the outcome was inactive.

On to `C[C@H](NC(=O)[C@@H]1CSCCCSC[C@H](NC(=O)[C@@H](N)CCCCN)C(=O)N[C@@H](CC(N)=O)C(=O)N[C@@H]([C@@H](C)O)C(=O)N[C@@H](C)C(=O)N[C@@H]([C@@H](C)O)C(=O)N1)C(N)=O` (H-KCNTATCA-NH2; linker 2-7 via X1), for which the result was inactive. Take `C[C@H](NC(=O)[C@@H]1CSCc2ccccc2CSC[C@H](NC(=O)[C@@H](N)CCCCN)C(=O)N[C@@H](CC(N)=O)C(=O)N[C@@H]([C@@H](C)O)C(=O)N[C@@H](C)C(=O)N[C@@H]([C@@H](C)O)C(=O)N1)C(N)=O` (H-KCNTATCA-NH2; linker 2-7 via oXylylene): the result was inactive. As for `C[C@H](NC(=O)[C@@H]1CSCc2ccc(cc2)CSC[C@H](NC(=O)[C@@H](N)CCCCN)C(=O)N[C@@H](CC(N)=O)C(=O)N[C@@H]([C@@H](C)O)C(=O)N[C@@H](C)C(=O)N[C@@H]([C@@H](C)O)C(=O)N1)C(N)=O` (H-KCNTATCA-NH2; linker 2-7 via pXylylene), the entry is “Active”; as for `C[C@H](NC(=O)[C@@H]1CSCCC(=O)NCCCC[C@H](NC(=O)[C@@H](N)CCCCN)C(=O)N[C@@H](CC(N)=O)C(=O)N[C@@H]([C@@H](C)O)C(=O)N[C@@H](C)C(=O)N[C@@H]([C@@H](C)O)C(=O)N1)C(N)=O` (H-KKNTATCA-NH2; linker 2-7 via X2), “inactive”; as for `C[C@H](NC(=O)[C@@H]1Cn2cc(nn2)C[C@H](NC(=O)[C@@H](N)CCCCN)C(=O)N[C@@H](CC(N)=O)C(=O)N[C@@H]([C@@H](C)O)C(=O)N[C@@H](C)C(=O)N[C@@H]([C@@H](C)O)C(=O)N1)C(N)=O` (H-K[Pra]NTAT[Dap(N3)]A-NH2; triazole 2-7), “inactive”.
